Data set [1] has as its system ITE degradation in mouse plasma. Description: Inhibition of ITE degradation in mouse plasma by esterase inhibitors. The conditions noted are these: for inhibition of ITE degradation (in words, rank): mouse plasma, 1 millimolar benzil, BNPP and tacrine, 0.5 millimolar rivastigmine, pre-incubated 60 minutes. The format is biochemical. The text has this: Each inhibitor provided at least some protection from degradation.
FIGS. 3-7 show a mass balance analysis of ITE+ITC in the presence of each inhibitor.

For data set [2] the following is noted: mouse.
Description: Levels of ITE and ITC in mouse plasma were determined by liquid chromatography-mass spectrometry (LC-MS). Standard curves were produced by serial dilution of ITE and ITE and used to convert ion counts to absolute concentrations (FIG. 1A).
Each inhibitor was tested independently for its ability to protect ITE from degradation in 0.5 milliliters of mouse plasma (FIG. 2A).

Structures are written as SMILES.

The record followed here is patent US20220387398A1, “IMMUNE TO[…] AND POTENTIATORS” (priority 2019, published 2022).

Take `Nc1c2c(nc3ccccc13)CCCC2` [Tacrine, tacrine]: in data set [1], the “inhibition of ITE degradation (in words, rank)” value (“inhibition of ITE degradation” for short) is reported as “weaker inhibitors”.

Take `CCN(C)C(=O)Oc1cccc([C@H](C)N(C)C)c1` [Rivastigmine, rivastigmine]: the “ITE protected from degradation” value in data set [1] (0.5 mL mouse plasma, at 120 minutes, 0.5 millimolar rivastigmine pre-incubated 60 minutes) is approximately 70%. Further, the “inhibition of ITE degradation” value in data set [1] is recorded as “best inhibitor of ITE degradation”.

For `O=[N+]([O-])c1ccc(OP(=O)(O)Oc2ccc([N+](=O)[O-])cc2)cc1` [BNPP, bis-para-nitrophenylphosphate], the “inhibition of ITE degradation” value in data set [1] is recorded as “weaker inhibitors”.

Regarding `COC(=O)c1csc(C(=O)c2c[nH]c3ccccc23)n1` [ITE, 2-(1 H-Indol-3-ylcarbonyl)-4-thiazolecarboxylic acid methyl ester], the ITE lost entry in data set [2] (30 min) is given as “over 60%”. For the same molecule, the ITE degraded entry in data set [2] (60 min) is given as “about 90%”.

Regarding `O=C(C(=O)c1ccccc1)c1ccccc1` [Benzil, benzil], in data set [1], the “inhibition of ITE degradation” value was “weakest single inhibitor”.
